Earlier results, collected in patent US6699900B2, “Hydrophilic and lipophilic silibinin pro-forms” (priority 2001, dated 2004).

Settings: Merck Index, Reference 8680

solubility in aqueous or lipophilic phases: not readily soluble
Compound: COc1cc(C2Oc3cc([C@H]4Oc5cc(O)cc(O)c5C(=O)[C@@H]4O)ccc3OC2CO)ccc1O (stereo partly shown) [silibinin]
